The values that follow are results of earlier work, collected in US7196076B2, “Androgen receptor modulators and methods of use thereof” (Merck & Co., Inc., priority 2001, dated 2007).

Counter-ions that a name gives are not always drawn.

For data set [1] the following is noted: after 7 years of treatment.
The conditions of data set [2]: median of 22 months of treatment.

On to `NCCCC(O)(P(=O)(O)O)P(=O)(O)O` [alendronate, 4-amino-1-hydroxybutylidene-1,1-bisphosphonic acid monosodium salt, trihydrate], for which, in data set [1], the “increase in spinal BMD” value was 11%. For “hPTH(1–34): human parathyroid hormone 1–34 fragment (SVSEIQLMHNLGKHLNSMERVEWLRKKLQDVHNF; Parathyroid hormone; UniProt P01270 32-65, looked up, fragment)”, in data set [2], the “reduction in nonvertebral fractures” value was 54% and the “reduction in spine fractures” value is ≥ 65%.
